Measurements published in patent publication EP4389751A1, “HETEROCYCLIC COMPOUNDS AND USES THEREOF” (Kumquat Biosciences Inc., priority 2021, dated 2024).
Where two headings read alike, the source gives them in different places.

Assays:
GP2D cells = assay: Cell proliferation assay (CellTiter-Glo), K-Ras G12D cells; type: cell-based; details: read-out: Inhibition of GP2D Cells (IC50)
Procedure, shortened: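 GP2D (K-Ras G12D) cells seeded in DMEM with 2 mM glutamine and 10% FBS, then dosed next day with a dilution series (e.g., 9-point 3-fold). Viability read by CellTiter-Glo luminescence after about 5 days. IC50 from four-parameter fit.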

K-Ras G12S = molecular target: T1, K-Ras G12S (Homo sapiens, UniProt P01116, G12S); assay: HTRF assay of the K-Ras / SOS1 interaction; type: biochemical; details: IC50 (against K-Ras G12D) to IC50 (against K-Ras G12S)
T1 construct: made in house; host or cells: E. coli (e.g., BL21 (DE3))
Procedure, shortened: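 GST-K-Ras G12S with anti-GST-Eu donor and His-hSOS1 with anti-6His-XL665 acceptor in ~5 mM HEPES pH 7.4, ~150 mM NaCl, 1 mM DTT, 0.05% BSA, 0.0025% Igepal. Read after ~10 min or longer; IC50 from 665/620 nm ratio, duplicates at 10 µM down to 0.01 µM.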

[1] = molecular target: T2, KRAS protein (His-tagged GDP-loaded G12S 1-169) (Homo sapiens, UniProt P01116, G12S); assay: Covalent modification of KRAS protein, intact-protein LC-MS; type: binding; details: 24hrs at room temperature, KRAS protein ~2 µM
T2 construct: His-tagged GDP-loaded G12S 1-169
Procedure, shortened: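 His-tagged GDP-loaded KRAS 1-169 (~2 µM) incubated with compound 24 h at room temperature, then quenched with formic acid. Intact-protein LC-ESI-MS on C4 column; deconvoluted peak intensities of unmodified and adducted protein give percent covalent modification.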

SMILES	IC50 (GP2D cells; GP2D cells (K-Ras G12D))	Ratio of IC50 KRAS G12D vs. IC50 KRAS G12S (K-Ras G12S)	% G12S Modification at 24 hr. [1]	IC50 (GP2D cells; GP2d)
CC(=O)c1c(F)ccc2cc(O)cc(-c3ccc4c(N5CCCC6(CN(C(=O)n7cncn7)C6)C5)nc(OC[C@@]56CCCN5C[C@H](F)C6)nc4c3F)c12 [Compound A154, 1-(8-(4-(2-(1H-1,2,4-triazole-1-carbonyl)-2,6-diazaspiro[3.5]nonan-6-yl)-8-fluoro-2-(((2R,7aS)-2-fluorotetrahydro-1H-pyrrolizin-7a(5H)-yl)methoxy)quinazolin-7-yl)-2-fluoro-6-hydroxynaphthalen-1-yl)ethan-1-one]	1 to 10 µM	A (A: indicates that the ratio of IC50 against KrasG12D vs. IC50 against KrasG12S is 1-fold or greater)	+++ (+++ indicates greater than 20% labelling)	
N#C[C@H]1CN(c2nc(OC[C@@]34CCCN3C[C@H](F)C4)nc3c(F)c(-c4ccc(F)c5sc(N)nc45)c(Cl)cc23)CCN1C(=O)n1cncn1 [Compound A157, (2R)-4-(7-(2-amino-7-fluorobenzo[d]thiazol-4-yl)-6-chloro-8-fluoro-2-(((2R,7aS)-2-fluorotetrahydro-1H-pyrrolizin-7a(5H)-yl)methoxy)quinazolin-4-yl)-1-(1H-1,2,4-triazole-1-carbonyl)piperazine-2-carbonitrile]	1 to 10 µM	A (A: indicates that the ratio of IC50 against KrasG12D vs. IC50 against KrasG12S is 1-fold or greater)	++ (++ indicates between about 1%- 20% labelling)	
N#Cc1c(N)sc2c(F)ccc(-c3ncc4c(N5CC6CCC(C5)N6C(=O)n5ccnc5C#N)nc(OC[C@@]56CCCN5C[C@H](F)C6)nc4c3F)c12 [Compound A165, 1-(3-(7-(2-amino-3-cyano-7-fluorobenzo[b]thiophen-4-yl)-8-fluoro-2-(((2R,7aS)-2-fluorotetrahydro-1H-pyrrolizin-7a(5H)-yl)methoxy)pyrido[4,3-d]pyrimidin-4-yl)-3,8-diazabicyclo[3.2. 1]octane-8-carbonyl)-1H-imidazole-2-carbonitrile]	1 to 10 µM	A (A: indicates that the ratio of IC50 against KrasG12D vs. IC50 against KrasG12S is 1-fold or greater)	++ (++ indicates between about 1%- 20% labelling)	
N#Cc1nccn1C(=O)N1CCCN(c2nc(OC[C@@]34CCCN3C[C@H](F)C4)nc3c(F)c(-c4ccc(F)c5sc(N)nc45)c(Cl)cc23)CC1 [Compound A171, 1-(4-(7-(2-amino-7-fluorobenzo[d]thiazol-4-yl)-6-chloro-8-fluoro-2-(((2R,7aS)-2-fluorotetrahydro-1H-pyrrolizin-7a(5H)-yl)methoxy)quinazolin-4-yl)-1,4-diazepane-1-carbonyl)-1H-imidazole-2-carbonitrile]	1 to 10 µM	A (A: indicates that the ratio of IC50 against KrasG12D vs. IC50 against KrasG12S is 1-fold or greater)	+++ (+++ indicates greater than 20% labelling)	
N#Cc1c(N)sc2c(F)ccc(-c3c(Cl)cc4c(N5CCC6C5CCCN6C(=O)n5cncn5)nc(OC[C@@]56CCCN5C[C@H](F)C6)nc4c3F)c12 (stereo partly drawn) [Compound A181, 4-(4-(4-(1H-1,2,4-triazole-1-carbonyl)octahydro-1H-pyrrolo[3,2-b]pyridin-1-yl)-6-chloro-8-fluoro-2-(((2R,7aS)-2-fluorotetrahydro-1H-pyrrolizin-7a(5H)-yl)methoxy)quinazolm-7-yl)-2-amino-7-fluorobenzo[b]thiophene-3-carbonitrile]	≤ 1 µM	A (A: indicates that the ratio of IC50 against KrasG12D vs. IC50 against KrasG12S is 1-fold or greater)	+++ (+++ indicates greater than 20% labelling)	
Nc1nc2c(-c3c(Cl)cc4c(N5CCC56CCCN(C(=O)n5cncn5)C6)nc(OCC56CCCN5CC(F)C6)nc4c3F)ccc(F)c2s1 (stereo not drawn) [Compound A197, (1-(7-(2-amino-7-fluorobenzo[d]thiazol-4-yl)-6-chloro-8-fluoro-2-((2-fluorotetrahydro-1H-pyrrolizin-7a(5H)-yl)methoxy)quinazolin-4-yl)-1,6-diazaspiro[3.5]nonan-6-yl)(1H-1,2,4-triazol-1-yl)methanone]	1 to 10 µM	A (A: indicates that the ratio of IC50 against KrasG12D vs. IC50 against KrasG12S is 1-fold or greater)	+++ (+++ indicates greater than 20% labelling)	
Nc1nc2c(-c3c(Cl)cc4c(N5CCC6(CN(C(=O)n7cncn7)C6)C5)nc(OC[C@@]56CCCN5C[C@H](F)C6)nc4c3F)ccc(F)c2s1 [Compound A201, (6-(7-(2-amino-7-fluorobenzo[d]thiazol-4-yl)-6-chloro-8-fluoro-2-(((2R,7aS)-2-fluorotetrahydro-1H-pyrrolizin-7a(5H)-yl)methoxy)quinazolm-4-yl)-2,6-diazaspiro[3.4]octan-2-yl)(1H-1,2,4-triazol-1-yl)methanone]	1 to 10 µM	A (A: indicates that the ratio of IC50 against KrasG12D vs. IC50 against KrasG12S is 1-fold or greater)	+++ (+++ indicates greater than 20% labelling)	
N#Cc1nccn1C(=O)N1CCN(c2nc(OC[C@@]34CCCN3C[C@H](F)C4)nc3c(F)c(-c4ccc(F)c5sc(N)nc45)c(Cl)cc23)CC(F)(F)C1 [Compound A204, 1-(4-(7-(2-amino-7-fluorobenzo[d]thiazol-4-yl)-6-chloro-8-fluoro-2-(((2R,7aS)-2-fluorotetrahydro-1H-pyrrolizin-7a(5H)-yl)methoxy)quinazolin-4-yl)-6,6-difluoro-1,4-diazepane-1 - carbonyl)-1H-imidazole-2-carbonitrile]	1 to 10 µM	A (A: indicates that the ratio of IC50 against KrasG12D vs. IC50 against KrasG12S is 1-fold or greater)	++ (++ indicates between about 1%- 20% labelling)	
Nc1nc2c(-c3c(Cl)cc4c(N[C@H]5C[C@H]6CC[C@@H](C5)N6C(=O)n5cncn5)nc(OC[C@@]56CCCN5C[C@H](F)C6)nc4c3F)ccc(F)c2s1 [Compound A207, ((1R,3r,5S)-3-((7-(2-amino-7-fluorobenzo[d]thiazol-4-yl)-6-chloro-8-fluoro-2-(((2R,7aS)-2-fluorotetrahydro-1H-pyrrolizin-7a(5H)-yl)methoxy)quinazolin-4-yl)amino)-8-azabicyclo[3.2.1]octan-8-yl)(1H-1,2,4-triazol-1-yl)methanone]		A (A: indicates that the ratio of IC50 against KrasG12D vs. IC50 against KrasG12S is 1-fold or greater)	+++ (+++ indicates greater than 20% labelling)	1 to 10 µM
Nc1nc2c(-c3c(Cl)cc4c(N5CCC56CCCN(C(=O)n5cncn5)CC6)nc(OC[C@@]56CCCN5C[C@H](F)C6)nc4c3F)ccc(F)c2s1 (stereo partly drawn) [Compound A209, (1-(7-(2-amino-7-fluorobenzo[d]thiazol-4-yl)-6-chloro-8-fluoro-2-(((2R,7aS)-2-fluorotetrahydro-1H-pyrrolizin-7a(5H)-yl)methoxy)quinazolin-4-yl)-1,7-diazaspiro[3.6]decan-7-yl)(1H-1,2,4-triazol-1-yl)methanone]	1 to 10 µM	A (A: indicates that the ratio of IC50 against KrasG12D vs. IC50 against KrasG12S is 1-fold or greater)	++ (++ indicates between about 1%- 20% labelling)	
Nc1nc2c(-c3c(Cl)cc4c(N5CCOC6(CCN(C(=O)n7cncn7)C6)C5)nc(OC[C@@]56CCCN5C[C@H](F)C6)nc4c3F)ccc(F)c2s1 (stereo partly drawn) [Compound A221, (9-(7-(2-amino-7-fluorobenzo[d]thiazol-4-yl)-6-chloro-8-fluoro-2-(((2R,7aS)-2-fluorotetrahydro-1H-pyrrolizin-7a(5H)-yl)methoxy)quinazolin-4-yl)-6-oxa-2,9-diazaspiro[4.5]decan-2-yl)(1H-1,2,4-triazol-1-yl)methanone]	1 to 10 µM	A (A: indicates that the ratio of IC50 against KrasG12D vs. IC50 against KrasG12S is 1-fold or greater)	++ (++ indicates between about 1%- 20% labelling)	
N#Cc1c(N)sc2c(F)ccc(-c3c(Cl)cc4c(N5CC6OCCN(C(=O)n7cncn7)C6C5)nc(OC[C@@]56CCCN5C[C@H](F)C6)nc4c3F)c12 (stereo partly drawn) [Compound A227, 4-(4-(4-(1H-1,2,4-triazole-1-carbonyl)hexahydropyrrolo[3,4-b][1,4]oxazin-6(2H)-yl)-6-chloro-8-fluoro-2-(((2R,7aS)-2-fluorotetrahydro-1H-pyrrolizin-7a(5H)-yl)methoxy)quinazolin-7-yl)-2-amino-7-fluorobenzo[b]thiophene-3-carbonitrile]	1 to 10 µM	A (A: indicates that the ratio of IC50 against KrasG12D vs. IC50 against KrasG12S is 1-fold or greater)	+++ (+++ indicates greater than 20% labelling)	
